IC50 data for 45 molecules are collected here from patent US20060252807A1, “Novel ortho-terphenyl inhibitors of p38 kinase and methods of treating inflammatory disorders” (Kalypsys, Inc., priority 2005, published 2006).

Bounds are passed on as bounds.

In one test the target is T1, active p38 alpha enzyme (Upstate Biotechnology) (Homo sapiens, UniProt Q16539).
T1 construct: purchased Upstate Biotechnology
T1 sequence (Q16539 whole entry): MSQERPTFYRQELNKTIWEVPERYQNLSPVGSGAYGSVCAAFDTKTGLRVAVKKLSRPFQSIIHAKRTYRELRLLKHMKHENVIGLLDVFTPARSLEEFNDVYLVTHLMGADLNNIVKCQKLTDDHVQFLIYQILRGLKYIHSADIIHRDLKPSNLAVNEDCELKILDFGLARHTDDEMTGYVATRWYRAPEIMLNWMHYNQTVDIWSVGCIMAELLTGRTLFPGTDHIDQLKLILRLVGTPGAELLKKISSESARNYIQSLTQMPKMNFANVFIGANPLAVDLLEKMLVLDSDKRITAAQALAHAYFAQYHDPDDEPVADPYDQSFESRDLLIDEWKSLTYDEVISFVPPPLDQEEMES
Description: p38α biochemical assay (ATP turnover, luminescent detection, Cambrex PKlight). The note with it: p38α biochemical assay, Table 1 Biological Activity. In outline:
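Luminescent PKlight readout of total ATP consumption follows a 2 h, 30C kinase reaction. Enzyme and MapkapK2 substrate run with 1.4 uM ATP (final) in buffer containing Mg2+, Ca2+, chelators, glycerol, reducing agent and BSA; test compounds added by pintool from DMSO.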
Usually IC50 stands for the concentration needed to halve the response being measured. The molecule `CCC(CO)NC(=O)c1csc(-c2sc(C)nc2-c2ccc(F)cc2)n1` (stereo not drawn) [Example 54, 4′-(4-Fluoro-phenyl)-2′-methyl-|2,5′|bithiazolyl-4-carboxylic acid (1-hydroxymethyl-propyl)-amide] displayed an IC50 of at most 1000 nM.
Still for that read-out and setting: next, `Cc1onc(-c2ccc(Cl)cc2)c1-c1ccn(C(=O)NCc2ccco2)n1` [Example 11, 3-|3-(4-Chloro-phenyl)-5-methyl-isoxazol-4-yl|-pyrazole-1-carboxylic acid (furan-2-ylmethyl)-amide]: above 1000 nM; `COc1cc(C(=O)NCc2nc(-c3ccc(F)cc3)c(-c3nc(C(=O)NC(C)C)cs3)o2)cc(OC)c1OC` [Example 285]: above 1000 nM; `CC(C)NC(=O)c1csc(-c2[nH]c(CN(C)C)nc2-c2ccc(F)cc2)n1` [Example 81, 2-|2-Dimethylaminomethyl-5-(4-fluoro-phenyl)-3H-imidazol-4-yl|-thiazole-4-carboxylic acid isopropylamide]: at most 1000 nM.
Regarding `CC(C)NC(=O)c1csc(-c2c(-c3ccc(F)cc3)noc2CNC(=O)c2ccccc2C(F)(F)F)n1` [Example 724], the 50% inhibitory concentration (IC50) was above 1000 nM.
On the same count and under the same terms, next, `Cc1cccc(C(=O)N2CCN(Cc3nc(-c4ccc(F)cc4)c(-c4nc(C(=O)NC(C)C)cs4)o3)CC2)c1O` [Example 379]: at most 1000 nM.
The same measure, in the same setting: next, `CC(=O)N1CCN(Cc2nc(-c3ccc(F)cc3)c(-c3nc(C(=O)NC(C)C)cs3)o2)CC1` [Example 335]: at most 1000 nM; `Cc1ccc(C(=O)NCc2nc(-c3ccc(F)cc3)c(-c3nc(C(=O)NC(C)C)cs3)o2)c(C)c1` [Example 134]: above 1000 nM; `CC(C)NC(=O)c1csc(-c2oc(CNC(=O)c3cc(Cl)ccn3)nc2-c2ccc(F)cc2)n1` [Example 155]: above 1000 nM.
Molecule `CC(C)NC(=O)c1csc(-c2oc(CNC(=O)C3CCCCN3C(=O)OC(C)(C)C)nc2-c2ccc(F)cc2)n1` (stereo not drawn) [Example 311] yielded an IC50 above 1000 nM.
The same measure, in the same setting: the value for `COc1ccc(OC)c(C(=O)N2CCN(Cc3nc(-c4ccc(F)cc4)c(-c4nc(C(=O)NC(C)C)cs4)o3)CC2)c1` [Example 461] was above 1000 nM; that for `CC(C)NC(=O)c1csc(-c2oc(CNC(=O)C3CC(O)CN3C(=O)OC(C)(C)C)nc2-c2ccc(F)cc2)n1` (stereo not drawn) [Example 317] was above 1000 nM; that for `CC(C)NC(=O)c1csc(-c2oc(CN3CCN(C(=O)C(C)c4cccc(C(=O)c5ccccc5)c4)CC3)nc2-c2ccc(F)cc2)n1` (stereo not drawn) [Example 567] was above 1000 nM.
On the same count and under the same terms, the value for `Cc1ccccc1CC(=O)NCc1onc(-c2ccc(F)cc2)c1-c1nc(C(=O)NC(C)C)cs1` [Example 610] was above 1000 nM; that for `CC(=O)c1ccc(C(=O)N2CCN(Cc3nc(-c4ccc(F)cc4)c(-c4nc(C(=O)NC(C)C)cs4)o3)CC2)cc1` [Example 404] was above 1000 nM.

The test is the same for the next values; noted with them: p38α kinase; Table 1 Biological Activity.
Turning to `COc1cccc(CCNCc2onc(-c3ccc(F)cc3)c2-c2nc(C(=O)NC(C)C)cs2)c1` [Example 1473], the IC50 is above 1000 nM.
On the same count and under the same terms, the value for `O=C(NC1CCCCC1)c1csc(-c2c(-c3ccc(F)cc3)n[nH]c2C2CCNCC2)n1` [Example 2055] was above 1000 nM.
`CSc1ccccc1NCc1onc(-c2ccc(F)cc2)c1-c1nc(C(=O)NC(C)C)cs1` [Example 1666] gave an IC50 above 1000 nM.
On the same count and under the same terms, the value for `CC(C)NC(=O)c1csc(-c2c(-c3ccc(F)cc3)noc2CNC(C)C(C)C)n1` (stereo not drawn) [Example 1400] was above 1000 nM; that for `Cc1nc(-c2ccc(F)cc2)c(-c2nc(C(=O)N(C)C(Cc3ccccc3)c3ccccc3)cs2)s1` (stereo not drawn) [Example 1939] was above 1000 nM; that for `CSc1ccccc1NCc1nc(-c2ccc(F)cc2)c(-c2nc(C(=O)NC(C)C)cs2)o1` [Example 1343] was above 1000 nM.
As for `Cc1nc(-c2ccc(F)cc2)c(-c2nc(C(=O)N3CCN(c4cccc(C)c4C)CC3)cs2)s1` [Example 1913], the IC50 is above 1000 nM.
Still for that read-out and setting: the value for `Cc1ccc(NCc2nc(-c3ccc(F)cc3)c(-c3nc(C(=O)NC(C)C)cs3)o2)cc1` [Example 1309] was above 1000 nM; that for `CC(C)NC(=O)c1csc(-c2oc(CN3CCC(C(N)=O)CC3)nc2-c2ccc(F)cc2)n1` [Example 1219] was above 1000 nM.
Still for that read-out and setting: next, `Cc1nc(-c2ccc(F)cc2)c(-c2nc(C(=O)Nc3ccc(OC(F)(F)F)cc3)cs2)s1` [Example 2011]: above 1000 nM; `CC1CCN(Cc2onc(-c3ccc(F)cc3)c2-c2nc(C(=O)NC(C)C)cs2)CC1` [Example 1523]: above 1000 nM; `CCCCN(Cc1ccccc1)C(=O)c1csc(-c2sc(C)nc2-c2ccc(F)cc2)n1` [Example 1894]: above 1000 nM.
The same measure, in the same setting: the value for `CC(=O)c1ccc(N2CCN(Cc3onc(-c4ccc(F)cc4)c3-c3nc(C(=O)NC(C)C)cs3)CC2)cc1` [Example 1606] was above 1000 nM.
The molecule `CC(C)NC(=O)c1csc(-c2c(-c3ccc(F)cc3)noc2CNc2c(C(C)C)cccc2C(C)C)n1` [Example 1687] displayed an IC50 above 1000 nM.
Regarding `Cc1nc(-c2ccc(F)cc2)c(-c2nc(C(=O)NCCc3ccccc3Cl)cs2)s1` [Example 1802], the IC50 is at most 1000 nM.
On the same count and under the same terms, next, `CC(C)NC(=O)c1csc(-c2oc(CN(C)CCc3ccccc3)nc2-c2ccc(F)cc2)n1` [Example 1227]: above 1000 nM; `Cc1nc(-c2ccc(F)cc2)c(-c2nc(C(=O)Nc3ccc4c(c3)OCO4)cs2)s1` [Example 1987]: at most 1000 nM; `Cc1ccc(N2CCN(C(=O)c3csc(-c4sc(C)nc4-c4ccc(F)cc4)n3)CC2)c(C)c1` [Example 1918]: above 1000 nM.
The same measure, in the same setting: the value for `CC(C)NC(=O)c1csc(-c2c(-c3ccc(F)cc3)n[nH]c2C2CCN(C(=O)CCc3nc4ccccc4[nH]3)CC2)n1` [Example 964] was at most 1000 nM; that for `CC(C)NC(=O)c1csc(-c2c(-c3ccc(F)cc3)noc2CN2CCN(c3cccc(Cl)c3)CC2)n1` [Example 1599] was above 1000 nM; that for `CC(C)NC(=O)c1csc(-c2c(-c3ccc(F)cc3)noc2CNc2ccc(F)c(C(F)(F)F)c2)n1` [Example 1690] was above 1000 nM.
Same read-out and setting: next, `CC(C)NC(=O)c1csc(-c2c(-c3ccc(F)cc3)n[nH]c2C2CCN(C(=O)C3CCc4ccccc4C3)CC2)n1` (stereo not drawn) [Example 918]: above 1000 nM.
In turn, `CC(C)NC(=O)c1csc(-c2c(-c3ccc(F)cc3)noc2CN2CCN(c3ccc(O)cc3)CC2)n1` [Example 1577] registered an IC50 above 1000 nM.
Same read-out and setting: the value for `CC(C)NC(=O)c1csc(-c2c(-c3ccc(F)cc3)n[nH]c2C2CCN(C(=O)Cc3c(F)cccc3F)CC2)n1` [Example 907] was above 1000 nM; that for `CC(C)NC(=O)c1csc(-c2c(-c3ccc(F)cc3)noc2CN(C)CCc2ccccn2)n1` [Example 1554] was at most 1000 nM.
Still for that read-out and setting: next, `O=C(NCCN1CCCCC1)c1csc(-c2c(-c3ccc(F)cc3)n[nH]c2C2CCNCC2)n1` [Example 2085]: above 1000 nM; `CCC(CO)NC(=O)c1csc(-c2c(-c3ccc(F)cc3)n[nH]c2C2CCNCC2)n1` (stereo not drawn) [Example 2052]: above 1000 nM.
The same measure, in the same setting: next, `CCOC(=O)N1CCN(Cc2onc(-c3ccc(F)cc3)c2-c2nc(C(=O)NC(C)C)cs2)CC1` [Example 1564]: above 1000 nM.
In the case of `CNC(=O)c1csc(-c2c(-c3ccc(F)cc3)n[nH]c2C2CCNCC2)n1` [Example 2031], the IC50 was at most 1000 nM.
`Cc1nc(-c2ccc(F)cc2)c(-c2nc(C(=O)NCCCN3CCCC3=O)cs2)s1` [Example 1788] showed an IC50 of at most 1000 nM.
